Laboratory results from the NIST ThermoML archive (doi:10.1021/je5006938).
± gives the expanded uncertainty stated by the source.

Details: Liquid, Closed cell (Static) method

FC(F)(F)C1(F)OC1(F)F (configuration not stated) [2,2,3-trifluoro-3-(trifluoromethyl)oxirane]
vapor or sublimation pressure (268.13 K): 258.47 ± 1.6 kPa
vapor or sublimation pressure (278.13 K): 365.66 ± 1.8 kPa
vapor or sublimation pressure (288.15 K): 503.71 ± 2.1 kPa
vapor or sublimation pressure (298.17 K): 678.24 ± 2.5 kPa
vapor or sublimation pressure (308.2 K): 894.42 ± 3 kPa
vapor or sublimation pressure (318.21 K): 1160.2 ± 3.4 kPa

FC(F)=C(F)C(F)(F)F [hexafluoropropene]
vapor or sublimation pressure (268.13 K): 278.57 ± 1.7 kPa
vapor or sublimation pressure (278.14 K): 394.08 ± 1.9 kPa
vapor or sublimation pressure (288.14 K): 542.58 ± 2.2 kPa
vapor or sublimation pressure (298.14 K): 729.82 ± 2.6 kPa
vapor or sublimation pressure (308.19 K): 963.24 ± 3.2 kPa
vapor or sublimation pressure (318.22 K): 1251.2 ± 3.6 kPa
